SMILES strings stand for the structures. ≈ marks a conversion by molar mass, not a printed value.

Data set [1] in a line: toxicity in the rat (LD50, oral). The conditions noted are these: in vivo.
A short description of data set [2]: water solubility. The class given is physicochemical.
Data set [3] can be described thus: in vivo. The conditions noted are these: rat, po.

`CCCCCCCCCNC(=O)Oc1ccc2c(c1)C1(C)CCN(C)C1N2C` (centres unmarked) [***] had an LD50 in data set [1] of 50 mg/kg.

Consider `CCCCCCCNC(=O)Oc1ccc2c(c1)C1(C)CCN(C)C1N2C` (centres unmarked) [Example 1], for which the concentration in solution in data set [2] (water) (solubility) came to 700 mg/mL (≈ 1950 mM). Turning to `CCCCNC(=O)Oc1ccc2c(c1)C1(C)CCN(C)C1N2C` (centres unmarked) [**], the LD50 in data set [1] was determined as 6 mg/kg. `CCCCCCCNC(=O)Oc1ccc2c(c1)C1(C)CCN(C)C1N2C` (centres unmarked) [*] showed a 50% lethal dose (LD50) in data set [3] of 20 mg/kg.

Take `CCCCCCCNC(=O)Oc1ccc2c(c1)C1(C)CCN(C)C1N2C` (centres unmarked) [corresponding non-salified derivative]: the “water solubility (in words)” value in data set [2] (non-salified derivative) is “insoluble”.

The values above are taken from patent US4978673A, “Organic salts of physostigmine derivatives” (priority 1987, dated 1990).
